Experimental data reported in ChEMBL document CHEMBL5512663, “Design, synthesis, and evaluation of novel quindoline derivatives with fork-shaped side chains as RNA G-quadruplex stabilizers for repressing oncogene NRAS translation” (Eur J Med Chem, 2024).
pIC50, pKd: −log10 of the molar value. One block for each compound: values may come before it. Calls of active or inactive are those of the source. The rule behind the calls is not given here.

Experiments:
Quadruplex RNA [1] = assay: Thermal stabilization of NRAS RNA G4 (unknown origin) assessed as change in melting temperature at 10 uM by CD spectrophotometer analysis; assay type: nucleic-acid assay
SK-MEL-2 [2] = assay: Cytotoxicity against human SK-MEL-2 cells incubated for 48 hrs by MTT assay; assay type: functional, cell-based; settings: SK-MEL-2, 48 h
Quadruplex RNA [3] = assay: Induction of NRAS RNA G4 stabilization in human SK-MEL-2 cells transfected with NRAS mutant assessed as reduction in ratio of RL to FL at 0.5 uM incubated for 66 hrs by dual luciferase reporter gene assay; assay type: cell-based
SK-MEL-2 [4] = assay: Inhibition of colony formation in human SK-MEL-2 cells at 0.13 to 0.25 uM after 10 days by crystal violet staining based assay; assay type: functional, cell-based; settings: dose 0.13-0.25 µM, time 10.0 day
[5] = Thermal stabilization of thrombin binding aptamer (unknown origin)
[6] = Drug localization in human SK-MEL-2 cells cytoplasm at 0.5 uM incubated for 24 hrs by laser scanning confocal microscopy; assay type: ADME, subcellular; settings: sk-mel-2, 24 h
Quadruplex DNA [7] = assay: Thermal stabilization of KRAS G4 (unknown origin); assay type: nucleic-acid assay
MCF7 = assay: Cytotoxicity against human MCF7 cells incubated for 48 hrs by MTT assay; assay type: functional, cell-based; settings: MCF7, 48 h
[8] = Toxicity in BALB/c nude mouse assessed as organ damage at 1 mg/kg, ip administered every day for 21 days; assay type: organism-based; settings: in vivo, 504 h, time 21 day
SK-MEL-2 [9] = assay: Antitumor activity against human SK-MEL-2 cells xenografted in BALB/c nude mouse assessed as reduction in tumor growth inhibition at 1 mg/kg, ip administered every day for 21 days; assay type: functional; settings: SK-MEL-2, 504 h, time 21 day, read-out: TGI
Quadruplex RNA [10] = assay: Induction of NRAS RNA G4 stabilization in human SK-MEL-2 cells transfected with NRAS 5'-UTR wild-type assessed as reduction in ratio of RL to FL at 0.5 uM incubated for 66 hrs by dual luciferase reporter gene assay; assay type: cell-based
Quadruplex RNA [11] = assay: Binding affinity to NRAS RNA G4 (unknown origin) by SPR method; assay type: nucleic-acid assay
[12] = Toxicity in BALB/c nude mouse assessed as pain at 1 mg/kg, ip administered every day for 21 days; assay type: organism-based; settings: in vivo, 504 h, time 21 day
HepG2 = assay: Cytotoxicity against human HepG2 cells incubated for 48 hrs by MTT assay; assay type: functional, cell-based; settings: HepG2, 48 h
[13] = Toxicity in BALB/c nude mouse assessed as distress at 1 mg/kg, ip administered every day for 21 days; assay type: organism-based; settings: in vivo, 504 h, time 21 day
RNA = assay: Thermal stabilization of RNA hairpin (unknown origin); assay type: nucleic-acid assay
HL-60 = assay: Cytotoxicity against human HL-60 cells incubated for 48 hrs by MTT assay; assay type: functional, cell-based; settings: HL-60, 48 h
[14] = Toxicity in BALB/c nude mouse assessed as discomfort at 1 mg/kg, ip administered every day for 21 days; assay type: organism-based; settings: in vivo, 504 h, time 21 day
dsDNA = assay: Thermal stabilization of DNA duplex (ds18) (unknown origin); assay type: nucleic-acid assay
A-375 = assay: Cytotoxicity against human A-375 cells incubated for 48 hrs by MTT assay; assay type: functional, cell-based; settings: A-375, 48 h
SK-MEL-2 [15] = assay: Downregulation of NRAS mRNA level in human SK-MEL-2 cells by qRT-PCR analysis; assay type: functional, cell-based
SK-MEL-2 [16] = assay: Antiproliferative activity against human SK-MEL-2 cells at 0.25 uM incubated for 48 hrs by MTT assay; assay type: functional
Quadruplex DNA [17] = assay: Thermal stabilization of NRAS DNA G4 (unknown origin) assessed as change in melting temperature at 10 uM by CD spectrophotometer analysis; assay type: nucleic-acid assay
SK-MEL-2 [18] = assay: Antitumor activity against human SK-MEL-2 cells xenografted in BALB/c nude mouse assessed as reduction in tumor volume at 1 mg/kg, ip measured every 3 days; assay type: functional, organism-based; settings: time 21.0 day, TDE = time-dependent effect
Quadruplex RNA [19] = assay: Induction of RNA G4s stabilization in human SK-MEL-2 cells assessed as increase in cytoplasmic rG4s after 24 hrs by immunofluorescence assay; assay type: cell-based
SK-MEL-2 [20] = assay: Downregulation of NRAS protein level in human SK-MEL-2 cells after 72 hrs by Western blotting analysis; assay type: functional, cell-based; settings: dose 0.5-1 µM
SK-MEL-2 [21] = assay: Antitumor activity against human SK-MEL-2 cells xenografted in BALB/c nude mouse assessed as reduction in tumor weight at 1 mg/kg, ip; assay type: functional, organism-based; settings: time 21.0 day, TDE = time-dependent effect
[22] = Toxicity in BALB/c nude mouse assessed as weight loss at 1 mg/kg, ip administered every day for 21 days and measured every 3 days; assay type: organism-based; settings: in vivo, 504 h, time 21 day

Compound: CCCCN(CCCC)CCCNc1ccc2nc3c(oc4ccc(F)cc43)c(NCCN3CCN(C)CC3)c2c1
ΔTm (Quadruplex RNA [1]): 25.5 °C
pIC50 (SK-MEL-2 [2]): 5.37

Compound: CSc1ccc(/C=C/c2ccc3nc4c(oc5ccccc54)c(NCCN4CCN(C)CC4)c3c2)cc1
ΔTm (Quadruplex RNA [1]): 16.8 °C
pIC50 (SK-MEL-2 [2]): 5.49

Compound: CCCCN(CCCC)CCCOc1ccc2nc3c(oc4ccc(F)cc43)c(NCCN3CCN(C)CC3)c2c1
ΔTm (Quadruplex RNA [1]): 31.8 °C
pIC50 (SK-MEL-2 [2]): 5.40

Compound: CCCCN(CCCC)CCOc1ccc2nc3c(oc4ccc(F)cc43)c(NCCN3CCN(C)CC3)c2c1
ΔTm (Quadruplex RNA [1]): 30.6 °C
pIC50 (SK-MEL-2 [2]): 5.12

Compound: CCCCN(CCCC)CCCNc1ccc2nc3c(oc4ccc(F)cc43)c(NCCN3CCCCC3)c2c1
ΔTm (Quadruplex RNA [1]): 21.3 °C
pIC50 (SK-MEL-2 [2]): 5.27

Compound: NCCNc1c2cc(OCCN3CCCCCC3)ccc2nc2c1oc1ccc(F)cc12
ΔTm (Quadruplex RNA [1]): 18.1 °C
pIC50 (SK-MEL-2 [2]): 5.20

Compound: CCCCN(CCCC)CCCOc1ccc2nc3c(oc4ccc(F)cc43)c(NCCN3CCCCC3)c2c1
ΔTm (Quadruplex RNA [1]): 24.4 °C
pIC50 (SK-MEL-2 [2]): 5.26

Compound: CCCCN(CCCC)CCCOc1ccc2nc3c(oc4ccccc43)c(NCCN(C)C)c2c1
ΔTm (Quadruplex RNA [1]): 22 °C
pIC50 (SK-MEL-2 [2]): 5.24

Compound: CCCCN(CCCC)CCOc1ccc2nc3c(oc4ccc(F)cc43)c(NCCN3CCCCC3)c2c1
ΔTm (Quadruplex RNA [1]): 26.2 °C
pIC50 (SK-MEL-2 [2]): 5.06

Compound: CN(C)CCNc1c2cc(OCCN3CCCCCC3)ccc2nc2c1oc1ccc(F)cc12
ΔTm (Quadruplex RNA [1]): 18.1 °C
pIC50 (SK-MEL-2 [2]): 5.18

Compound: CCCCN(CCCC)CCCNc1ccc2nc3c(oc4ccc(F)cc43)c(NCCN3CCCC3)c2c1
ΔTm (Quadruplex RNA [1]): 19.8 °C
pIC50 (SK-MEL-2 [2]): 5.47

Compound: CCCCN(CCCC)CCCNc1ccc2nc3c(oc4ccc(F)cc43)c(NCCN(C)C)c2c1
ΔTm (Quadruplex RNA [1]): 19.4 °C
pIC50 (SK-MEL-2 [2]): 5.47

Compound: Fc1ccc2oc3c(NCCN4CCCC4)c4cc(OCCN5CCCCCC5)ccc4nc3c2c1
ΔTm (Quadruplex RNA [1]): 21.4 °C
pIC50 (SK-MEL-2 [2]): 5.16

Compound: CN(C)CCCCCCOc1ccc2nc3c(oc4ccc(F)cc43)c(NCCN3CCCC3)c2c1
ΔTm (Quadruplex RNA [1]): 24.8 °C
pIC50 (SK-MEL-2 [2]): 5.13

Compound: NCCCNc1c2cc(OCCN3CCCCCC3)ccc2nc2c1oc1ccc(F)cc12
ΔTm (Quadruplex RNA [1]): 24.2 °C
pIC50 (SK-MEL-2 [2]): 5.27

Compound: CCCCN(CCCC)CCCOc1ccc2nc3c(oc4ccccc43)c(NCCN3CCCC3)c2c1
ΔTm (Quadruplex RNA [1]): 20.2 °C
pIC50 (SK-MEL-2 [2]): 5.35

Further lines, with some results ahead:

ΔTm (Quadruplex RNA [1]): 24.1 °C
Compound: CN(C)CCCCCCOc1ccc2nc3c(oc4ccc(F)cc43)c(NCCN(C)C)c2c1
pIC50 (SK-MEL-2 [2]): 5.14

Activity [5]: inactive
ΔTm (Quadruplex RNA [1]): 26.1 °C
Drug uptake [6]: Active
Activity (Quadruplex DNA [7]): inactive
pKd (Quadruplex RNA [11]): 5.64
Activity (RNA): inactive
Activity (dsDNA): inactive
ΔTm (Quadruplex DNA [17]): 19 °C
Compound: CCCCN(CCCC)CCCOc1ccc2nc3c(oc4ccc(F)cc43)c(NCCCN)c2c1
Activity (Quadruplex RNA [3]): inactive
inhibition (SK-MEL-2 [4]): Active
pIC50 (MCF7): 5.39
Activity [8]: Non-Toxic
inhibition in vivo at 1 mg/kg (SK-MEL-2 [9]): 54.9%
Activity (Quadruplex RNA [10]): Active
Activity [12]: Non-Toxic
pIC50 (HepG2): 5.82
Activity [13]: Non-Toxic
pIC50 (HL-60): 5.57
Activity [14]: Non-Toxic
pIC50 (A-375): 5.35
Activity (SK-MEL-2 [15]): inactive
Activity (SK-MEL-2 [16]): 100%
Activity (SK-MEL-2 [18]): Tde
Activity (Quadruplex RNA [19]): Active
pIC50 (SK-MEL-2 [2]): 5.70
Activity (SK-MEL-2 [20]): Dose-Dependent Effect
Activity (SK-MEL-2 [21]): Tde
Activity [22]: Non-Toxic

ΔTm (Quadruplex RNA [1]): 19.3 °C
Compound: CCCCN(CCCC)CCCNc1ccc2nc3c(oc4ccc(F)cc43)c(NCCCN)c2c1
pIC50 (SK-MEL-2 [2]): 5.35

ΔTm (Quadruplex RNA [1]): 25.3 °C
Compound: CCN(CC)CCCOc1ccc2nc3c(oc4ccc(F)cc43)c(NCCCN)c2c1
pIC50 (SK-MEL-2 [2]): 5.41

ΔTm (Quadruplex RNA [1]): 20.7 °C
Compound: CN(C)CCCCCCOc1ccc2nc3c(oc4ccc(F)cc43)c(NCCN)c2c1
pIC50 (SK-MEL-2 [2]): 5.15

ΔTm (Quadruplex RNA [1]): 13.4 °C
Compound: CCCCN(CCCC)CCOc1ccc2nc3c(oc4ccc(F)cc43)c(NCCN)c2c1
pIC50 (SK-MEL-2 [2]): 5.29

ΔTm (Quadruplex RNA [1]): 22.9 °C
Compound: CCCCN(CCCC)CCCOc1ccc2nc3c(oc4ccc(F)cc43)c(NCCN)c2c1
pIC50 (SK-MEL-2 [2]): 5.66

ΔTm (Quadruplex RNA [1]): 19.5 °C
Compound: CCCCN(CCCC)CCCOc1ccc2nc3c(oc4ccccc43)c(NCCCN)c2c1
pIC50 (SK-MEL-2 [2]): 5.59

ΔTm (Quadruplex RNA [1]): 26.3 °C
Compound: CCN(CC)CCCOc1ccc2nc3c(oc4ccc(F)cc43)c(NCCN(C)C)c2c1
pIC50 (SK-MEL-2 [2]): 5.19

ΔTm (Quadruplex RNA [1]): 26.3 °C
Compound: CCCCN(CCCC)CCOc1ccc2nc3c(oc4ccc(F)cc43)c(NCCN(C)C)c2c1
pIC50 (SK-MEL-2 [2]): 5.35

ΔTm (Quadruplex RNA [1]): 23.9 °C
Compound: CCCCN(CCCC)CCCOc1ccc2nc3c(oc4ccc(F)cc43)c(NCCN(C)C)c2c1
pIC50 (SK-MEL-2 [2]): 5.40

ΔTm (Quadruplex RNA [1]): 21.2 °C
Compound: CCN(CC)CCCOc1ccc2nc3c(oc4ccc(F)cc43)c(NCCN)c2c1
pIC50 (SK-MEL-2 [2]): 5.17

ΔTm (Quadruplex RNA [1]): 20.8 °C
Compound: CCCCN(CCCC)CCCOc1ccc2nc3c(oc4ccc(F)cc43)c(NCCN3CCCC3)c2c1
pIC50 (SK-MEL-2 [2]): 5.40

ΔTm (Quadruplex RNA [1]): 25.3 °C
Compound: CN(C)CCCCCCOc1ccc2nc3c(oc4ccc(F)cc43)c(NCCCN)c2c1
pIC50 (SK-MEL-2 [2]): 5.11

ΔTm (Quadruplex RNA [1]): 22.1 °C
Compound: CCCCN(CCCC)CCOc1ccc2nc3c(oc4ccc(F)cc43)c(NCCCN)c2c1
pIC50 (SK-MEL-2 [2]): 5.70

ΔTm (Quadruplex RNA [1]): 24 °C
Compound: CCCCN(CCCC)CCOc1ccc2nc3c(oc4ccc(F)cc43)c(NCCN3CCCC3)c2c1
pIC50 (SK-MEL-2 [2]): 5.29

ΔTm (Quadruplex RNA [1]): 26.3 °C
Compound: CCN(CC)CCCOc1ccc2nc3c(oc4ccc(F)cc43)c(NCCN3CCCC3)c2c1
pIC50 (SK-MEL-2 [2]): 5.15
